# Reference: paper PMC6207715, “Determination of extended substrate specificity of the MALT1 as a strategy for the design of potent substrates and activity-based probes” (Scientific Reports, 2018)
# Read-outs that look alike come from different tables or passages of the source. Non-standard residues stand in square brackets, D forms with d. *: point of attachment. ACC = NC(=O)Cc1cc(=O)oc2cc(N*)ccc12; Abu = CC[C@H](N)C(=O)O
# What was measured:
# Assay type in all cases: biochemical
# MALT1 [1] = target: T1, MALT1 (Homo sapiens, UniProt Q9UDY8); experiment: Kinetic assay of ACC fluorogenic substrates (kcat, Km, kcat/Km); settings: 37 °C; 50 mM HEPES, 100 mM NaCl, 0.9 M sodium citrate, 10 mM DTT, pH 7.5; substrate 3.90-150 μM; ACC fluorescence 355/460 nm; average of three measurements
# T1 sequence (Q9UDY8 1-824): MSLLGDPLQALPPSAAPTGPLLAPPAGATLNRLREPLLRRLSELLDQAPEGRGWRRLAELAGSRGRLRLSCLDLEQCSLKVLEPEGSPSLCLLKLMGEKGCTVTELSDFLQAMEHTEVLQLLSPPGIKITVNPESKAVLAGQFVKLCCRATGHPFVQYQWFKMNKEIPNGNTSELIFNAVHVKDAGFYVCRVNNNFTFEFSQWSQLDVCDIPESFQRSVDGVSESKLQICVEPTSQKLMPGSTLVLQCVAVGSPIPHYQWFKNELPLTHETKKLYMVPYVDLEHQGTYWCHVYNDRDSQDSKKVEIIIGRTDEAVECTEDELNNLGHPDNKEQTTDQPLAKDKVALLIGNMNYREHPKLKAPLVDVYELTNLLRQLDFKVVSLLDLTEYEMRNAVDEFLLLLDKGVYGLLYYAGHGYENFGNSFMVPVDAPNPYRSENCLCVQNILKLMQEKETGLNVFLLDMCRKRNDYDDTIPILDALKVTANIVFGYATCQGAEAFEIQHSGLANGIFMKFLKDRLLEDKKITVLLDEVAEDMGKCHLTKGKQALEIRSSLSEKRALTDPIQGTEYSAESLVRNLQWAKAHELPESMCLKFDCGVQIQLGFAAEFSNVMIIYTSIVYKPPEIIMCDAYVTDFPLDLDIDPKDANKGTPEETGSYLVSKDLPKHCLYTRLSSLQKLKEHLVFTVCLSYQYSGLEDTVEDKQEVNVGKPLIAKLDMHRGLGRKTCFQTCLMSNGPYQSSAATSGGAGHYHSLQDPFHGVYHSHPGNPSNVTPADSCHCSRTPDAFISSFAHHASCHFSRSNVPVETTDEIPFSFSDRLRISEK
# Protocol: Figure 2 MALT1 substrate activity. Panel a. kcat/Km values for MALT1 substrates compared with that of the reference substrate (ALVSR). MALT1 was incubated at 37 °C for 30 minutes and added to the wells containing the substrate at varying concentrations. Relative fluorescence units were measured over time at excitation/emission wavelengths of 355/460 nm for at least 10 minutes. The data represent averages of three separate measurements, and error bars represent standard deviations. Panel b. Structure of our best (lower panel) and the reference (upper panel) MALT1 fluorogenic substrate.
# (§1) All kinetic assays were performed with a Spectra Max Gemini XPS spectrofluorimeter (Molecular Devices) and 96-well Corning plates. The measurement characteristics were as follows: 37 °C, excitation/emission wavelength of 355/460 nm, cutoff of 455 nm, and varying concentrations of substrates and enzyme. The assay buffer was prepared at 23 °C and contained 50 mM HEPES (2-[4-(2-hydroxyethyl)piperazin-1-yl]ethanesulfonic acid), 100 mM NaCl, 0.9 M sodium citrate and 10 mM dithiothreitol (DTT) (pH 7.5). MALT1^FL or MALT1^CD were preincubated for 30 minutes at 37 °C before being added to wells containing substrate. Next, the increase in fluorescence was recorded over the time. Only the linear portions of the curves were used for calculations. The kcat and Km values were calculated using GraphPad Prism and Microsoft Excel software. All measurements were repeated three times, and the data presented are averages of these replicates. […]
# was carried out after each coupling and Fmoc deprotection step. The N terminus was protected with an acetyl group using 5 eq AcOH, 5 eq HBTU, and 5 eq DIPEA in DMF.
# After solvent removal, the resin was washed six times with DMF in order to remove excess reagents, three times with DCM, and three times with MeOH and then dried over P2O5 and cleaved from the resin with a TFA/TIPS/H2O mixture (%, v/v/v, 95:2.5:2.5).
# The crude product was purified by HPLC and lyophilized. The purity of each substrate was confirmed by analytical HPLC, and each substrate was analyzed using HRMS.
# (§2) Substrates were dissolved in peptide-grade DMSO to a concentration of 20 mM and stored at -80°C until use.
# (§3) Calculation of kcat, Km and kcat/Km values
# (§4) Kinetic parameters were calculated under the same conditions as the library with slight modification. The total reaction volume in each well was 100 μL. The substrate and enzyme concentrations used ranged from 3.90 μM to 150 μM and 40 μM, respectively.
# (§5) The increase in relative fluorescence units was monitored for 20-30 minutes, and only the linear parts of the curves were used to determine the rate of the reaction. The kcat and Km values were calculated using GraphPad Prism software. All measurements were repeated three times using the appropriate concentration of the enzyme, and the data presented are averages of these repetitions.
# MALT1 [2] = target: T1, MALT1; experiment: Inhibition kinetics of activity-based probe (kobs/I)
# MALT1^FL [3] = target: T2, MALT1^FL (Homo sapiens, UniProt Q9UDY8); experiment: MALT1 labeling with PKG105, SDS-PAGE fluorescence scan; settings: 100 nM enzyme; probe 500, 250, 125 nM; 30 minutes, 37 °C; gel scan 700 nm
# T2 construct: treating full-length MALT1 (MALT1^FL), the MALT1 catalytic domain (MALT1^CD)
# T2 sequence (Q9UDY8 1-824): T1 sequence (Q9UDY8 1-824)
# Protocol: (§6) MALT1^FL, MALT1^CD or MALT1^C/A at 100 nM were incubated with PKG105 at three different concentrations: 500 nM, 250 nM and 125 nM for 30 minutes at 37 °C. As a control, MALT1^FL without the probe was incubated in the assay buffer. Samples were denatured in 3 × SDS-loading buffer for 5 minutes at 95 °C. SDS-PAGE was performed under reducing conditions for 37 minutes at 165 V. The fluorescence signal in the gel was measured using a Li-Cor (Odyssey®) instrument at a wavelength of 700 nm.
# MALT1^CD [4] = target: T3, MALT1^CD (Homo sapiens, UniProt Q9UDY8); experiment: as above; settings: 100 nM enzyme; probe 500, 250, 125 nM; 30 minutes, 37 °C; gel scan 700 nm
# T3 construct: the MALT1 catalytic domain (MALT1^CD)
# T3 sequence (Q9UDY8 348-562 limits assumed): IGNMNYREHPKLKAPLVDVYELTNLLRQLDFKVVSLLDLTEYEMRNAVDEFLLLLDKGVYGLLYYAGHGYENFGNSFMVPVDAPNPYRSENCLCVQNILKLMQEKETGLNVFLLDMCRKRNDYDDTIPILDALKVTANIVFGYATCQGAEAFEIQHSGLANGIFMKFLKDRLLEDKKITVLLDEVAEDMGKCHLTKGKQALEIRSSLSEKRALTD
# Protocol: as §6
# MALT1^C/A = experiment: as above; settings: 100 nM enzyme; probe 500, 250, 125 nM; 30 minutes, 37 °C; gel scan 700 nm
# Protocol: as §6
# [5] = system: MALT1 in RAW 264.7 cell lysates; experiment: Labeling of active MALT1 in RAW 264.7 cell lysates; settings: RAW 264.7 lysates; probe 8 to 500 nM; 30 minutes, 37 °C; gel scan 700 nm
# Protocol: Figure 3 Probe to detect active MALT1. Panel a. Structure of the MALT1 probe (PKG105). Panel b. RAW 264.7 cell lysates were incubated with PKG105 at various concentrations. As a control, lysates were pretreated with mepazine, followed by incubation with probe. Lysates that were not treated with mepazine were also used. SDS-PAGE was performed at 165 V. Fluorescence was scanned using the 700 nm channel (LI-COR). Gels are representative of at least two replicates. TEXT PRINTED IN THE PICTURE: (a) PKG105: kobs/I = 92,000 M^-1s^-1
# Twenty-five microliters of RAW 264.7 cell lysates (from 5 * 10^6 cells/mL) were incubated with PKG105 at concentrations ranging from 8 to 500 nM. As controls, cells that were not incubated with probe or cells that were pretreated with 1 µL of 10 mM mepazine were treated with 500 nM PKG105. The lysates were incubated with the probe for 30 minutes at 37 °C, followed by denaturation in 3 × SDS-loading buffer for 5 minutes at 95 °C. SDS-PAGE was performed under reducing conditions for 37 minutes at 165 V. The fluorescence signal in the gel was measured using a Li-Cor (Odyssey®) at a wavelength of 700 nm.
# MALT1^CD [6] = target: T3, MALT1^CD; experiment: Kinetic assay of IQF substrates, catalytic domain; settings: IQF substrate, ACC/Lys(Dnp) pair; 37 °C, assay buffer pH 7.5; 355/460 nm; average of three
# Protocol: as §1, §2, §3, §4, §5
# MALT1^FL [7] = target: T2, MALT1^FL; experiment: Kinetic assay of IQF substrates, full-length enzyme; settings: IQF substrate, ACC/Lys(Dnp) pair; 37 °C, assay buffer pH 7.5; 355/460 nm; average of three
# Protocol: as §1, §2, §3, §4, §5
Substance,Km (MALT1 [1]) [µM],kcat (MALT1 [1]) [s⁻¹],"kcat/Km, MALT1^CD (MALT1^CD [6])","kcat/Km, MALT1^FL (MALT1^FL [7])",also measured
Ac-[Abu]LVSR-{ACC} (SMILES CC[C@H](NC(C)=O)C(=O)N[C@@H](CC(C)C)C(=O)N[C@H](C(=O)N[C@@H](CO)C(=O)N[C@@H](CCCNC(=N)N)C(=O)Nc1ccc2c(CC(N)=O)cc(=O)oc2c1)C(C)C) [Ac-Abu-LVSR-ACC],22.15 ± 0.01,0.19 ± 0.0295,,,
Ac-[dA]LVSR-{ACC} (SMILES CC(=O)N[C@H](C)C(=O)N[C@@H](CC(C)C)C(=O)N[C@H](C(=O)N[C@@H](CO)C(=O)N[C@@H](CCCNC(=N)N)C(=O)Nc1ccc2c(CC(N)=O)cc(=O)oc2c1)C(C)C) [Ac-D-Ala-LVSR-ACC],24.4 ± 6.97,0.076 ± 0.034,,,
Ac-[dV]LVSR-{ACC} (SMILES CC(=O)N[C@@H](C(=O)N[C@@H](CC(C)C)C(=O)N[C@H](C(=O)N[C@@H](CO)C(=O)N[C@@H](CCCNC(=N)N)C(=O)Nc1ccc2c(CC(N)=O)cc(=O)oc2c1)C(C)C)C(C)C) [Ac-D-Val-LVSR-ACC],19.2 ± 2.5,0.15 ± 0.012,,,
Cy5-Phe(guan)-Leu-Val-Pro-Arg-AOMK [PKG105],,,,,"kobs/I (MALT1 [2]): 92,000 s^−1M^−1; kobs/I (MALT1 [2]; printed in Figure 3a): 92,000 M^-1s^-1; kobs/I relative to the best MALT1 inhibitor in the literature (MALT1 [2]; times higher than 9,300 s^−1M^−1): approximately 10 times; labeling of MALT1^FL by probe (MALT1^FL [3]): detected enzyme activity; labeling of MALT1^CD by probe (MALT1^CD [4]): detected enzyme activity; labeling of MALT1^C/A catalytic mutant by probe (MALT1^C/A): no labeling was observed; detection of active MALT1 in cell lysates by probe [5]: detected active MALT1"
H2N-ACC-Ahx-A-L-V-S-R–G-Abu-K(Dnp)G-OH [Substrate M2],,,2.6 * 10^3 ± 38 M^−1s^−1,5.5 * 10^3 ± 291 M^−1s^−1,
H2N-ACC-Ahx-A-L-V-S-R–G-Nva-K(Dnp)G-OH [Substrate M1],,,3.5 * 10^3 ± 165 M^−1s^−1,4.8 * 10^3 ± 362 M^−1s^−1,
H2N-ACC-Ahx-A-L-V-S-R–G-Thr-K(Dnp)G-OH [Substrate M3],,,2.8 * 10^3 ± 101 M^−1s^−1,6.3 * 10^3 ± 311 M^−1s^−1,
